This is an account of results in paper PMC3397408, “Natural and synthetic cathelicidin peptides with anti-microbial and anti-biofilm activity against Staphylococcus aureus” (BMC Microbiology, 2011).

Read-outs that look alike come from different tables or passages of the source. Where no end group is shown, it is not given here.

The subject of one data set is erythrocytes. The note with it: examined up to 200 μg/ml; cited from earlier work. As to the method:
The hemolytic activity of each of the peptides was determined using 2% horse erythrocytes as previously described.

The subject of data set [1] is S. aureus attachment to 96-well plate. The data set can be described thus: Biofilm attachment assay. The note with it: peptide 1 μg/ml, 1 h, 37°C, TSB culture OD600 ~1.0, n = 16, Student's t test. It counts as cell-based, Staphylococcus aureus. The method, then: The attachment of Staphylococcus spp. to solid surfaces is largely seen as an essential step in the formation of biofilm. Since most of the peptides tested in our biofilm assays were capable of inhibiting biofilm formation (except for scrambled LL-37), we investigated a possible mechanism for this action. We incubated scrambled LL-37 (negative control), LL-37, D-LL-37, NA-CATH, and NA-CATH:ATRA1-ATRA1 peptides with S. aureus in a 1 hr attachment assay at peptide concentrations of 1 ug/ml, examining for the initial adherence to the wells of the 96 well tissue-culture treated plate.
Figure 3 Attachment assay of S. aureus in the presence of peptide. We tested scrambled LL-37 (negative control), LL-37, D-LL-37, NA-CATH, and NA-CATH:ATRA1-ATRA1 against S. aureus (1 h, 37°C) at 1 μg/ml, only allowing for the initial adherence to the wells.
Biofilm attachment assays were performed in a 96-well microtiter plate (BD Falcon 353072), as previously described. Overnight cultures of S. aureus were grown in TSB to an optical density (600nm) of ~1.0. 200 μl culture was added to the wells, followed by no peptide, scrambled LL-37 , LL-37, D-LL-37, NA-CATH, or NA-CATH:ATRA1-ATRA1 at 1 μg/ml. […] The wells were washed and OD600 measurements were taken, as in the biofilm production experiments, and the average absorbance for each treatment was determined (n = 16).

The subject of data set [2] is S. aureus biofilm formation. Conditions: peptide 10 μg/ml, TSB, 24 h, 37°C, polystyrene 96-well plate, crystal violet 570 nm, n = 6, relative to 0 peptide control. As to the method: (§1) C. […] Growth (absorbance at 600 nm) is indicated by gray bars with "0 peptide" control set to 100%. Biofilm detection on a polystyrene 96-well plate at 37°C after 24 h of growth in TSB was detected as the absorbance of crystal violet stain (570 nm). Percent biofilm production is indicated by black bars (n = 6), relative to "0 peptide" control. Each experiment is a representative of at least two independent trials. Error bars indicate the standard deviation from the mean. The asterisk (*) indicates statistically different than the positive control (p < 0.01).
(§2) Biofilm production was measured as previously described with the following modifications. […] The positive control is S. aureus in TSB with no peptide. Six wells were used for each peptide concentration (n = 6). After 24 h, the optical densities (OD) of the wells were taken at 600nm to quantify […]. The biofilm production was measured using the crystal violet stain technique.
All experiments were repeated at least twice, with a representative experiment shown.

The next data set concerns S. aureus. The data set can be described thus: Bacterial growth / MIC in TSB. It counts as cell-based, Staphylococcus aureus. Conditions: TSB (relatively high salt), peptide concentrations up to the EC50 found in 10 mM sodium phosphate. The method, then: as §1, §2
In the next data set the test system is S. aureus (ATCC 25923). The method, then: S. aureus (ATCC 25923, American Type Culture Collection, Manassas, VA) was grown in Nutrient Broth (Difco Laboratories, Detroit, Mich.) at pH 7, 37°C, 24 h with shaking at 200 rpm. The overnight culture was frozen with 20% glycerol and stored at -80°C. The frozen stock was enumerated (CFU/ml) by dilution plating and growth on Nutrient Agar plates.
For anti-microbial assays, frozen enumerated aliquots were thawed and gently mixed immediately before use. In a 96-well plate (BD Falcon 353072), 1 × 10^5 CFU per well bacteria were incubated with different peptide concentrations (in serial dilutions of 1:10 across the plate) in a solution of buffer containing sterile 10 mM sodium phosphate (pH 7.4) and incubated (3 h, 37°C). Negative control wells contained bacteria with no peptide. Serial dilutions were then carried out in sterile 1x PBS (Fisher Scientific) (pH 7) and plated in triplicate on Nutrient Agar plates, incubated (37°C, 24 h) and counted. […] The EC50 was calculated as previously described.
Each experiment was repeated at least twice, and a representative experiment is shown, for clarity. Errors were reported based on the standard deviation from the mean of the log10 EC50 values. 95% confidence intervals were used to determine whether points were statistically different at p = 0.05.

For `CC[C@H](C)[C@H](NC(=O)[C@H](CCCCN)NC(=O)[C@H](CCC(=O)O)NC(=O)[C@H](CCCCN)NC(=O)[C@H](CO)NC(=O)[C@H](CCCCN)NC(=O)[C@H](CCCNC(=N)N)NC(=O)[C@H](Cc1ccccc1)NC(=O)[C@H](Cc1ccccc1)NC(=O)[C@H](CC(=O)O)NC(=O)CNC(=O)[C@H](CC(C)C)NC(=O)[C@@H](N)CC(C)C)C(=O)NCC(=O)N[C@@H](CCCCN)C(=O)N[C@@H](CCC(=O)O)C(=O)N[C@@H](Cc1ccccc1)C(=O)N[C@@H](CCCCN)C(=O)N[C@@H](CCCNC(=N)N)C(=O)N[C@H](C(=O)N[C@H](C(=O)N[C@@H](CCC(N)=O)C(=O)N[C@@H](CCCNC(=N)N)C(=O)N[C@H](C(=O)N[C@@H](CCCCN)C(=O)N[C@@H](CC(=O)O)C(=O)N[C@@H](Cc1ccccc1)C(=O)N[C@@H](CC(C)C)C(=O)N[C@@H](CCCNC(=N)N)C(=O)N[C@@H](CC(N)=O)C(=O)N[C@@H](CC(C)C)C(=O)N[C@H](C(=O)N1CCC[C@H]1C(=O)N[C@@H](CCCNC(=N)N)C(=O)N[C@H](C(=O)N[C@@H](CCC(=O)O)C(=O)N[C@@H](CO)C(=O)O)[C@@H](C)O)C(C)C)[C@@H](C)CC)C(C)C)[C@@H](C)CC` [LL-37], the “hemolytic activity” value in the data set with erythrocytes is “similarly low levels”. In data set [1], the “attachment of S. aureus to the wells” value is on record as “significantly decreased”. Further, in data set [2], the “inhibition of biofilm formation” value was ~ 40%. In addition, the “bacterial growth (OD600 at 24 hours)” value with S. aureus is given as “not decreased”.

As a reminder, the EC50 is the concentration at which the effect is half-maximal. For KRAKKFFKKLK-NH2 [ATRA-1A], the EC50 is 310 nM in the data set on S. aureus (ATCC 25923) (EC50 in μg/ml converted with the molecular weight of the TFA salt of the peptide) and 0.73 µg/mL in the data set on S. aureus (ATCC 25923) (S. aureus ATCC 25923, 1 × 10^5 CFU per well, 3 h, 37°C, 10 mM sodium phosphate (pH 7.4), % survival by CFU counts, plated in triplicate, representative experiment). Besides, in the data set with S. aureus (ATCC 25923) (p > 0.05), the “fold change of activity against S. aureus, ATRA-1A compared to ATRA-1” value came out at 1.4 fold.
